One may read the Ki as the dissociation constant of the complex between target and ligand, obtained from inhibition or displacement. A higher Ki goes with lower affinity.

This passage reports Ki results from BindingDB's records for doi:10.1021/jm030061i (University of Connecticut, 2003).

For assay [1], the target named is hypoxanthine phosphoribosyltransferase (Trypanosoma cruzi). Description: Kinetic inhibition constant of compound with Trypanosoma cruzi Hypoxanthine Phosphoribosyltransferase (HPRT).
Assay [2] deals with hypoxanthine phosphoribosyltransferase (Salmonella typhimurium). Description: Kinetic inhibition constant of compound with bacterial Hypoxanthine Phosphoribosyltransferase (HPRT).

As to `Nc1cc2c3ccccc3ccc2c2ccccc12` [Chrysen-6-ylamine], in assay [1], the inhibition constant Ki is 0.6 µM.

As for `O=C(Nc1cc2c3ccccc3ccc2c2ccccc12)C(Cl)Cl` [2,2-Dichloro-N-chrysen-6-yl-acetamide], the Ki in assay [1] is 0.5 µM; in assay [2] it was above 25 µM.

In turn, `O=[N+]([O-])c1cc2c3ccccc3ccc2c2ccccc12` [6-Nitro-chrysene] came in with an inhibition constant (Ki) in assay [1] of 6.7 µM.

Take `Fc1cc2c3ccccc3ccc2c2ccccc12` [6-Fluoro-chrysene]: the affinity in assay [1] corresponds to a Ki of 2.8 µM.
